Earlier results as cited in patent publication US8221990B2, “Screening GPR12 receptor for substances having Nesfatin-1-like action, or which regulate Nesfatin-1 action” (Teijin Pharma Limited, priority 2007, dated 2012).

Target: T1, GPR12 (Homo sapiens, UniProt P47775)
T1 sequence (P47775 1-334): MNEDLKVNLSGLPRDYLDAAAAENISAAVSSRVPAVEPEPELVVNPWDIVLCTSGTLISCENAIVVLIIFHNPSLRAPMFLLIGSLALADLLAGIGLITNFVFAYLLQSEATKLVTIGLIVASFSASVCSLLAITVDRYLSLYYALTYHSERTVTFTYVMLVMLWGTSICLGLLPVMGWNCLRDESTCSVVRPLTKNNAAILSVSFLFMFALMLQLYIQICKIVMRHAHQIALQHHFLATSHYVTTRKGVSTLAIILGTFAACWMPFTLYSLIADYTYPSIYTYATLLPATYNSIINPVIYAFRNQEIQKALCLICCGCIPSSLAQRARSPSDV
Settings: cells in which a GPR12 gene is introduced and expressed; cited from earlier work

CCCCCCCCCCCCC/C=C/[C@@H](O)[C@@H](N)COP(=O)(O)O [S1P, sphingosine 1-phosphate]
cytoplasmic calcium ion concentration: increase in cytoplasmic calcium ion concentration occurs

CCCCCCCCCCCCC/C=C/[C@@H](O)[C@@H](N)COP(=O)([O-])OCC[N+](C)(C)C [SPC, sphingosylphosphorylcholine]
cytoplasmic calcium ion concentration: increase in cytoplasmic calcium ion concentration occurs
